In patent US20170165322A1, “PEPTIDE AND SMALL MOLECULE AGONISTS OF EPHA AND THEIR USES IN DISEASE” (CASE WESTERN RESERVE UNIVERSITY, priority 2006, published 2017):

How the values were obtained:
H460 xenograft = H460 xenograft growth in nude mice; assay type: in vivo, human; details: ephrin-A1-Fc 5 μg/g i.p. once every two days, five times, Alimta 150 mg/kg i.p. daily x 5 days
Description: FIGS. 16(A-B) illustrate, A) Systemic treatment with ephrin-A1-Fc, but not control Fc, inhibited the growth of H1975 NSCLC xenografts. Eight-week old NCR nude mice were injected with 2×10^6 H1975 cells s.c. into the hind flanks. One week later, when the tumors had reached an average of about 100 mm3, mice (5/group) were injected i.p. twice a week with Fc or ephrin-A1-Fc at 2.5 or 5.0 μg/g. Equal volume of PBS was used as control. The day of the first treatment was designated as day 1. Rapid tumor growth necessitated termination of experiment at day 18. B) Comparison between ephrin-A1-Fc and Alimta for therapeutic efficacy on H460 xenografts. Cell implantation and treatment were the same as in (A). Alimta/Pemetrexed was injected at 150 mg/kg, i.p daily×5 days), or ephrin-A1-Fc (5 μg/g, mouse, i.p, once every two days, for five times). Note ephrin-A1-Fc treatment achieved better efficacy of tumor growth inhibition than Alimta, a new drug for lung cancer therapy in this cell type. * Indicates significant difference between PBS and ephrin-A1-treated groups, p<0.05.
We next compared ephrin-A1-Fc and Alimta/Pemetrexed for therapeutic efficacy against H460 xenograft. H460 cells are derived from a lung adenocarcinoma that express moderate levels of EphA2 (not shown). […]

Akt = assay: Immunoblot of p-Akt (Ser473) in DU145 cells; assay type: cell-based, human; details: DU145-vector, then ephrin-A1 30 min
Description: (§1) A Immunoblot analysis of the expression and tyrosine phosphorylation of EphA2 in DU145 cells. Parental DU145 cells were stably infected with a retroviral vector expressing wild-type EphA2 or empty vector. Clonal puromycin-resistant cells were isolated and expanded. The selected cells at 70-80% confluence were stimulated with 2 μg/ml ephrin-A1-Fc for the indicated times. The total cell lysates were resolved by SDS-PAGE and then probed with rabbit polyclonal anti-p-EphA/B and anti-EphA2 antibodies. […] The cells were treated as described in (A). Cell lysates were subject to immunoblot with the indicated antibodies.
(§2) DU145-vector cells were pretreated with okadaic acid (10, 50, and 250 nM) for 1 h, followed by stimulation with ephrin-A1-Fc for 30 min. The total cellular lysates were prepared and subjected to immunoblot analyses as described in FIG. 1 using the indicated antibodies. Notes: Okadaic acid inhibits only PP2A at low concentrations (<100 nM), but it inhibits both PP1 and PP2A at higher concentrations (>100 nM).
(§3) A. Cells were treated with rapamycin (1 nM) in the absence or presence of ephrin-A1 (2 μg/ml) for the indicated times Immunoblot analysis was performed as described above. […]

ERK1/2 = assay: Immunoblot of p-ERK1/2 in DU145 cells; assay type: cell-based, human; details: DU145-vector, okadaic acid pretreatment 1 h, then ephrin-A1 30 min
Description: as §1, §2, §3

PP2A = details: low concentrations; cited from earlier work
PP1 = details: higher concentrations; cited from earlier work

Structure (SMILES)	growth of H460 xenograft (H460 xenograft)	effect on Akt dephosphorylation induced by EphA2 activation (Akt; okadaic acid 250 nM pretreatment 1 h)	effect on Akt dephosphorylation induced by EphA2 activation (Akt; okadaic acid 10 and 50 nM pretreatment 1 h)	effects on ERK1/2 under the same conditions (ERK1/2)	concentrations at which only PP2A is inhibited (PP2A) [nM]	concentrations at which both PP1 and PP2A are inhibited (PP1) [nM]
Nc1nc2[nH]cc(CCc3ccc(C(=O)N[C@@H](CCC(=O)O)C(=O)O)cc3)c2c(=O)[nH]1 [Alimta, Pemetrexed]	minimal effects					
C=C1[C@@H](O)[C@@H]2O[C@]3(CC[C@H](/C=C/[C@@H](C)[C@@H]4CC(C)=C[C@@]5(O[C@H](C[C@@](C)(O)C(=O)O)CC[C@H]5O)O4)O3)CC[C@H]2O[C@@H]1[C@@H](O)C[C@H](C)[C@H]1O[C@@]2(CCCCO2)CC[C@H]1C [okadaic acid]		completely blocked	did not affect Akt dephosphorylation	not as pronounced	< 100	> 100
